Tests used:
N2a-SwedAPP cells = assay: MTT viability assay in N2a-SwedAPP cells; format: cell-based, murine; conditions: mouse, 48 h
Description: N2a-SwedAPP cells were obtained from Dr. Gopal Thinakaran (University of Chicago, Chicago, Ill., USA). N2a-SwedAPP cells were cultured in Dulbecco's modified Eagle's medium (DMEM) and OPTI-MEM medium in a 1:1 ratio with 5% FBS, 50 μg/mL penicillin, 50 μg/mL streptomycin and 200 μg/mL G418 as previously described in Thinakaran G, Teplow D B, Siman R, Greenberg B, Sisodia S S (1996) Metabolism of the “Swedish” amyloid precursor protein variant in neuro2a (N2a) cells. J Biol Chem 271: 9390-9397. N2a-SwedAPP cells were incubated at 37° C. in a 5% CO2/95% humidity incubator. Cells were seeded 24 hours prior to the treatments. When growth reached close to 90% of confluence, cells were transferred into DMEM with 1% FBS for loading extracts. The final concentration of DMSO in all experiments was 0.1%, and this concentration caused no cytotoxicity.
For the viability assay, N2a-SwedAPP cells were seeded in a 96-well plate (7000 cells/well and 5000 cells/well). […] Finally, optical intensity was measured using a BioRad plate reader at 570 nm and a reference of 620 nm. […]
N2a-SwedishAPP cells are widely used as a cellular model of Alzheimer's disease, because they express a high level of APP and Aβ. The effects of HLJDT and its components on viability of N2SwedAPP cells are monitored by using the MTT assay. […]

[1] = test system: Aβ plaques in TgCRND8 mice; assay: Immunohistochemistry of Aβ plaque burden in TgCRND8 mice; format: in vivo; conditions: oral, 25 mg/kg per day, 3 months, 4G8 immunostaining, p<0.05
From the text: All animal handling experiments were approved by the Hong Kong Baptist University Committee on the Use of Human and Animal Subjects in Teaching and Research (HASC, approval #: 12-13/0030). TgCRND8 mice expressing human APP with Swedish (K670N/M671L) and Indiana (V717F) mutations were used to evaluate the effect of baicalein on Aβ. Heterozygous TgCRND8 mice on a C57BL/6J background were used to breed a colony of experimental animals. […]
Immunohistochemistry and image analysis of Aβ plaques is performed on coronal brain sections from TgCRND8 mice treated with baicalein or tap water as described previously by Durairajan et al. 2012. […] Images are obtained with a Nikon fluorescent inverted microscope with digital Nikon camera and analyzed by Image J software. Aβ plaque burden is calculated as the area occupied by the Aβ plaques as a percentage of total area of the brain sections.

[2] = rat, in vivo; cited from earlier work

For O=c1cc(-c2ccccc2)oc2cc(O)c(O)c(O)c12 [baicalein], the “non-toxic concentration (highest concentration that shows greater than 90% cell viability)” value (N2a-SwedAPP cells) is listed as 12.5 µM, the “increase of area occupied by Aβ deposits in cortex and hippocampus” value [1] is listed as 44% and the “brain bioavailability of baicalein (greater than berberine)” value [2] is listed as 1 to 10 µM.
